The record followed here is PubChem BioAssay (NCI).

For this assay, the system named is MDA-MB-468 breast. The assay is described as follows: NCI-60 cell line screen, 48 h.

Where “and” joins values, the source holds several entries; their conditions need not be identical. Identical values can stand only once.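 Dose response: 5 concentrations. Exposure: 48 h. Format: 96-well plates. Endpoint: linear interpolation; highest concentration if not reached. GI50 marks 50% less growth. The concentration for full growth arrest is given as TGI.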 Bounds are passed on as bounds.

Turning to `CN(C)C/C=C/C(=O)Nc1cc2c(Nc3cccc(Cl)c3F)ncnc2cc1OCCOC(F)F`, the GI50 was below 0.01 µM.
On to `C=C1C(=O)O[C@H]2[C@H]1CC/C(COC(=O)/C=C\C(=O)NCc1ccc(Cn3c(=O)sn(-c4ccc(Cl)cc4)c3=O)cc1)=C\CC[C@@]1(C)O[C@@H]21`, for which the GI50 was 0.568 µM and the TGI came to 1.37 µM.
As for `CN1CCN(c2ccc(Nc3nc(NCCCNS(=O)(=O)c4ccc(F)cc4)c4sccc4n3)cc2)CC1`, the GI50 was 10.2 µM and the TGI is 22.6 µM.
Turning to `CCCCC[C@H]1C/C=C2/C(=O)C(Cl)=C[C@@H]2C/C=C\CCCC(=O)O1`, the GI50 is 0.357 µM and the TGI came to 1.04 µM.
As to `CCC(C(=O)[C@@H](C)[C@@H](O)[C@H](C)[C@@H]1O[C@@H]([C@@H](CC)C(=O)ONC(=O)c2ccccc2)CC[C@@H]1C)[C@H]1O[C@]2(C=CC(=O)[C@]3(CC[C@@](C)([C@H]4CC[C@](O)(CC)[C@H](C)O4)O3)O2)[C@H](C)C[C@@H]1C` (some centres not stated), the GI50 is 0.0992 µM and the TGI stood at 0.979 µM.
In the case of `CCOC(=O)c1cc2c(n1Cc1ccccc1OC)-c1oncc1CCC2`, the GI50 was 2.95 µM and the TGI was above 100 µM.
For `O=C(CC1Sc2ccccc2NC1=O)NNc1ccc(F)cc1` (configuration not stated), the GI50 was above 100 µM and the TGI is above 100 µM.
Consider `CC[Si](CC)(CC)OC1[C@@H](O[Si](CC)(CC)CC)[C@@H](CNC(=O)NC)O[C@H]1n1cnc2c(NC(=O)Nc3ccccc3)ncnc21` (some centres not stated), for which the GI50 is 4.24 µM and the TGI amounted to 57.4 µM.
As for `CCOC(=O)c1cc(C(=O)c2cc(OC)c(OC)c(OC)c2)n2ccc(-c3cc[n+](CC(=O)c4cc(OC)c(OC)c(OC)c4)cc3)cc12`, the GI50 is 1.94 µM and the TGI came out at 3.81 µM.
On the same counts, the results for `Cn1cc(-c2nc(-c3cn(C)c4ncccc34)cs2)c2ccccc21` are 0.169 µM and 0.719 µM.
`CCN(CC)CCCNc1cc(OC)c(OC)c2cccnc12`: the GI50 is 3.85 µM and the TGI is 14.6 µM.
Consider `C=CCN1C(=O)[C@]2(SC1=S)[C@H](c1cccc(Cl)c1)CN(C)[C@]21C(=O)NC2C=CC(Cl)=C[C@H]21` (some centres not stated), for which the GI50 is 3.24 µM and the TGI came out at 14.3 µM.
As to `CC(=O)/C=C/c1ccc(N(CCO)Cc2ccc(C(C)(C)C)cc2)cc1`, the GI50 is 31.1 µM and the TGI is 127 µM.
Consider `COc1cccc(-c2nn(-c3ccccc3)cc2-c2ccnc(NCCCNS(=O)(=O)c3ccc(C(F)(F)F)cc3)c2)c1`, for which the GI50 is 3.11 µM and the TGI was above 100 µM.
On the same counts, the results for `CCOC(=O)c1cc2c(n1Cc1cc(OC)cc(OC)c1)-c1oncc1CC2` are 0.0364 µM and 0.268 µM.
In the case of `OCC1OC(n2cnc3c(NCc4ccco4)ncnc32)C(O)C1O` (configuration not stated), the GI50 was 1.36 µM and the TGI was found to be 3.16 µM.
Turning to `Cc1ccc(NC2=CC(=O)C(=O)c3ccccc32)cc1`, the GI50 is 1.97 µM and the TGI came to 5.74 µM.
On the same counts, the results for `O=C(Nc1ccc(Cl)cc1)N1CCN(c2ccc3nncn3n2)CC1` are 26.9 µM and 99.3 µM.
On the same counts, the results for `CN(c1ccc(F)cc1)S(=O)(=O)c1ccc(-c2cnc(C3CC3)o2)cc1` are 0.0544 µM and 8.98 µM.
Taken in the same sequence, the figures for `O=C(c1ccc(Nc2nccc(NCCCCNc3ccnc4cc(Cl)ccc34)n2)cc1)N1CCCCC1` were 1.47 µM and 3.47 µM.
`O=c1[nH]c2ccccc2n1C1CCN(CCOc2ccccc2)CC1`: the GI50 was 6.25 µM and the TGI is 57.8 µM.
Taken in the same sequence, the figures for `COc1cc(NCCC2CCCCN2)c2ncccc2c1OC` (configuration not stated) were 2.07 µM and 4.18 µM.
Taken in the same sequence, the figures for `C=C1C(=O)O[C@H]2[C@H]1CC/C(COC(=O)N[C@H](Cc1c[nH]c3ccccc13)C(=O)OC)=C\CC[C@@]1(C)O[C@@H]21` were 1.02 µM and 3.92 µM.
On to `Cc1nn(-c2ccccc2)c2nc(C)n(-c3ccc(Br)cc3)c(=O)c12`, for which the GI50 was 0.476 µM and the TGI was determined as 53 µM.
As for `COc1cc(/C=C/c2ccnc3ccccc23)cc(OC)c1OC`, the GI50 is 1.19 µM and the TGI stood at 5.67 µM.
Consider `C[C@@H](Oc1cc(-c2cnn(C3CCNCC3)c2)cnc1N)c1c(Cl)cc(F)cc1Cl`, for which the GI50 was 1.31 µM and the TGI was found to be 2.92 µM.
Taken in the same sequence, the figures for `COc1ccc(NC(=O)c2cccc(C3CCc4c(cc(OC)c(OC)c4OC)O3)c2)cc1` (configuration not stated) were 2.6 µM and above 100 µM.
For the compound `NCCCNc1nc2ccccc2c2c(=O)c3cc(F)cc(Cl)c3sc12`, the GI50 was 1.69 µM and the TGI was found to be 3.71 µM.
On the same counts, the results for `CC[C@H](CO)Nc1ccc2ncc(C#Cc3cncc(C(=O)Nc4ccc(CN5CCN(C)CC5)c(C(F)(F)F)c4)c3)n2n1` are 0.126 µM and 0.376 µM.
For the compound `CC1(C)CC[C@]2(CO)CC[C@]3(C)C(=CC[C@@H]4[C@@]5(C)CCNCC(C)(C)[C@@H]5CC[C@]43C)[C@@H]2C1`, the GI50 is 1.8 µM and the TGI came to 3.79 µM.
In the case of `CC(C)(C)OC(=O)N1Cc2cc3ccccc3nc2C1CO` (configuration not stated), the GI50 is above 100 µM and the TGI is above 100 µM.
In the case of `COc1ccc2nc3ccccc3c(NCc3ccccc3)c2c1`, the GI50 was 1.77 µM and the TGI was determined as 4.05 µM.
Consider `Nc1no[n+]([O-])c1-c1nnc2c(n1)-c1ccccc1C2=O`, for which the GI50 was 2.19 µM and the TGI worked out at 5.64 µM.
Regarding `NC(Cc1c[nH]c2cccc(F)c12)C(=O)O` (configuration not stated), the GI50 is 50.8 µM and 494 µM; the TGI stood at 2050 µM.
`Nc1nc(N)c(-c2ccc(Cl)c(Cl)c2)c(CP(Cl)(Cl)(Cl)Br)n1`: the GI50 was 7.45 µM and the TGI was found to be 36.1 µM.
On the same counts, the results for `O=C(CCl)Nc1ccc(Cc2ccc(NC(=O)CCl)cc2)cc1` are 2.03 µM and 5.57 µM.
On the same counts, the results for `CCC(=C(c1ccc(OCCN2CCCC2)cc1)c1ccc(OCCN2CCCC2)cc1)c1ccc(Cl)cc1` are 0.533 µM and 1.07 µM.
On the same counts, the results for `CCN(CC)CCCC(C)Nc1ccnc(/C=C/c2ccc(Cl)cc2)c1` (configuration not stated) are 1.45 µM and 2.86 µM.
For the compound `CC1(C)CN(CCNc2nccc(-c3c(-c4cccc(O)c4)nc4sccn34)n2)S(=O)(=O)N1`, the GI50 is 7.03 µM and the TGI was above 33.2 µM.
